Values quoted from earlier work, collected in patent publication US5599811A, “Benzothiazine dioxides as endothelin antagonists” (Warner-Lambert Company, priority 1995, dated 1997).
Read-outs that look alike come from different tables or passages of the source. Where a SMILES comes first, the peptide text is derived from it. [ ]: non-standard residue; d: D form.

How the values were obtained:
[1] = test system: cerebral vasospasm following SAH; settings: rat; cited from earlier work
[2] = test system: subarachnoid hemorrhage; settings: rats; cited from earlier work
[3] = test system: acute renal ischemia; settings: rats; cited from earlier work
[4] = test system: cerebral vasospasm following subarachnoid hemorrhage; settings: in vivo; cited from earlier work
[5] = test system: allergic sheep; settings: cited from earlier work
[6] = test system: cerebral vasospasm following SAH; settings: rabbit; cited from earlier work
[7] = test system: basilar artery; settings: rabbits with SAH; cited from earlier work
[8] = test system: congestive heart failure; settings: rat, in vivo; cited from earlier work
[9] = test system: basilar artery; settings: after 7 days, canine two-hemorrhage model of SAH; cited from earlier work
[10] = test system: ischemia-induced acute renal failure; settings: anesthetized dogs (title of citation); cited from earlier work

COc1cccc(Oc2c(NS(=O)(=O)c3ccc(C(C)(C)C)cc3)ncnc2OCCO)c1 [Ro 46-2005]
prevention of early cerebral vasospasm following SAH [1]: prevent early cerebral vasospasm following SAH
effect in model of subarachnoid hemorrhage [2]: effective
effect in model of acute renal ischemia [3]: effective

CC(C)C[C@@H]1NC(=O)[C@@H](C(C)C)NC(=O)[C@@H]2CCCN2C(=O)[C@@H](CC(=O)O)NC(=O)[C@@H](Cc2c[nH]c3ccccc23)NC1=O [BQ-123] (cyclo(L[dW][dD]P[dV]))
prevention of early cerebral vasospasm following subarachnoid hemorrhage [4]: prevent early cerebral vasospasm following subarachnoid hemorrhage
prevention of early cerebral vasospasm following SAH [1]: prevents early cerebral vasospasm following SAH
block of ET-1-induced bronchoconstriction and tracheal smooth muscle contraction [5]: block ET-1-induced bronchoconstriction and tracheal smooth muscle contraction
prevention of early cerebral vasospasm following SAH [6]: prevents early cerebral vasospasm following SAH

COc1ccccc1Oc1c(NS(=O)(=O)c2ccc(C(C)(C)C)cc2)nc(-c2ncccn2)nc1OCCO [Bosentan]
reduction of basilar artery cross-sectional area compared to sham rabbits [7]: 36±7%
treatment of congestive heart failure [8]: useful in the treatment of congestive heart failure

FR 139317
inhibition of vasoconstriction of the basilar artery [9]: significantly inhibited the vascoconstriction of the basilar artery

CCCOc1ccc2c(c1)[C@@H](c1ccc(OC)cc1OCC(=O)O)[C@H](C(=O)O)[C@H]2c1ccc2c(c1)OCO2 [SB 209670]
effect in ischemia-induced acute renal failure [10]: beneficial in ischemia-induced acute renal failure
